One data set deals with α1 Receptor. Description: α1 receptor binding. Particulars: read-out: α1 Receptor Binding IC50, Alpha1.
A further data set deals with serotonin uptake. Description: Serotonin uptake functional assay (rat cortex synaptosomes). Format: biochemical. The note with it: for IC50: rat cortex synaptosomes, read-out: Monoamine Neuronal Transport IC50, 5-HT Uptake. The procedure:
Characterization of serotonin uptake is performed using synaptosomes isolated in a 0.32 M sucrose buffer from a male Wistar rat cortex. The uptake of radiolabelled serotonin by synaptosomes (100 μg of proteins/point) is allowed by incubating them for 15 minutes at 37° C. in presence of test compounds and [3H]5-hydroxytryptamin (0.1 μCi/point). The experiment is performed in a deep well.
Synaptosomes and [3H]5-hydroxytryptamin are prepared in a Krebs buffer pH 7.4 containing 25 mM NaHCO3, 11 mM glucose and 50 μM ascorbic acid. This incubation buffer is oxygenated during 5 minutes before incubation. Basal control is incubated for 15 minutes at 4° C. in order to avoid any uptake. Following this incubation the uptake is stopped by filtration through an “unifilter 96-wells GFB” Packard plate washed with Krebs buffer containing 25 mM NaHCO3 in order to eliminate the free [3H]5-hydroxytrptamin. The radioactivity associated to the synaptosomes retained onto the unifilter corresponding to the uptake is then measured with a microplate scintillation counter Topcount, Packard using a scintillation liquid microscint 0, Packard.
[See Perovics and Müller “Pharmacological profile of hypericum extract: effect on serotonin uptake by postsynaptic receptors”, Arzeim.

For another data set, the system named is norepinephrine uptake. Description: Norepinephrine uptake functional assay (rat hypothalamus synaptosomes). Format: biochemical. Particulars: read-out: Monoamine Neuronal Transport IC50, NE uptake. The procedure:
Characterization of norepinephrine uptake is performed using synaptosomes isolated at Cerep in a 0.32 M sucrose buffer from a male Wistar rat hypothalamus. The uptake of radiolabeled norepinephrine by synaptosomes (100 μg of proteins/point) is allowed by incubating them for 20 minutes at 37° C. in presence of test compounds and [3H]-norepinephrine (0.1 μCi/point). The experiment is performed in a deep well.
Synaptosomes and [3H]-norepinephrine are prepared in a Krebs buffer pH 7.4 containing 25 mM NaHCO3, 11 mM glucose and 50 μM ascorbic acid. This incubation buffer is oxygenated during 5 minutes before incubation. Basal control is incubated for 20 minutes at 4° C. in order to avoid any uptake. Following this incubation the uptake is stopped by filtration through an “unifilter 96-wells GFB” Packard plate washed with Krebs buffer containing 25 mM NaHCO3 in order to eliminate the free [3H]-norepinephrine. The radioactivity associated to the synaptosomes retained onto the unifilter corresponding to the uptake is then measured with a microplate scintillation counter Topcount, Packard using a scintillation liquid microscint 0, Packard.
[See Perovics and Müller, op.cit. (1995).]

Another data set deals with T1, CYP1A2 (Homo sapiens, UniProt P05177).
T1 sequence (P05177 1-516): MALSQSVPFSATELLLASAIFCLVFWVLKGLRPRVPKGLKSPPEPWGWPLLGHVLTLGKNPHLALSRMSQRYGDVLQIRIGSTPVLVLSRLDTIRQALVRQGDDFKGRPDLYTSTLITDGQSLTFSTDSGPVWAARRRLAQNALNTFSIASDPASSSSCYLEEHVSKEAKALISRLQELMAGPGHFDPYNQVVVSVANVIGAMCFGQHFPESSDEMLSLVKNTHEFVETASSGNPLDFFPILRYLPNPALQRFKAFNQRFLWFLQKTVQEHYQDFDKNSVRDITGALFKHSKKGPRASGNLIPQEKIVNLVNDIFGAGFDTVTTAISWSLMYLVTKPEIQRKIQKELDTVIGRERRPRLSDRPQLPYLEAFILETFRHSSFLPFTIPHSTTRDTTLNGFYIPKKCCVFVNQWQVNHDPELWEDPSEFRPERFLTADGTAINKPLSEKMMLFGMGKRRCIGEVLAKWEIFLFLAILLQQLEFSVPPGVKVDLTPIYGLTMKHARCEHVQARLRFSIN
Description: CYP450 inhibition, CYP1A2. Format: in vitro ADME. The note with it: parameter and unit inferred.

In a further data set the target is CYP3A4 (Homo sapiens, UniProt P08684). Description: CYP450 inhibition, CYP3A4 BZRes. The data set is classed as in vitro ADME. Particulars: parameter and unit inferred.
For another data set, the target named is T2, Human D2 Receptor (Homo sapiens, UniProt P14416).
T2 construct: expressed in transfected cells; host or cells: A9L cells
Description: Human D2 receptor binding ([3H]spiperone). Particulars: comment on Table 1. Here is the method: (§1) Dopamine and serotonin receptor binding assays were performed in a standard manner with the incubation of membrane preparations in an assay buffer in the presence of a known radioactively labeled specific ligand for the receptor subtypes. Nonspecific binding was determined by assessing binding in the presence of excess ligand. Specific binding was measured as the total labeled ligand bound after the nonspecific binding was subtracted. The effect of the tested agents was measured by determining the competition for the receptor binding across a concentration range. Subsequently, an IC50 was determined for the agents tested. More specific details are provided below for several of the assays performed.
Aliquots of transfected A9L cell membrane preparations corresponding to 20-40 μg protein are incubated for 60 min at 22° C. in 250 μL of 50 mM Tris-HCl buffer (pH 7.4) containing 120 mM NaCl, 5 mM KCl, 5 mM MgCl2, 1 mM EDTA, 0.3 nM [^3H]spiperone and increasing concentrations of the competing drugs. Nonspecific binding is determined in the presence of 10 μM (+)butaclamol. […] Bound radioactivity is measured with a scintillation counter (Topcount, Packard) using a liquid-scintillation cocktail (Microscint 0, Packard). […]

The target in the next data set is T3, Human 5-HT2A Receptor (Homo sapiens, UniProt P28223).
T3 construct: expressed in transfected cells; host or cells: CHO cells
Description: Human 5-HT2A receptor binding ([3H]ketanserin). The note with it: comment on Table 2. Here is the method:
as §1
Nonspecific binding is determined in the presence of 1 μM ketanserin. […] Bound radioactivity is measured with a scintillation counter (Topcount, Packard) using a liquid scintillation cocktail (Microscint 0, Packard). The reference compound for this assay is ketanserin.

A further data set has as its target CYP2C19 (Homo sapiens, UniProt P33261). Description: CYP450 inhibition, CYP2C19. Format: in vitro ADME. The note with it: parameter and unit inferred.
The conditions of data set [1]: immediate-release tablets; first-pass metabolism; cited from earlier work.

This is an account of results in patent US20030083338A1, “Compositions and methods for management of serotonin-mediated disorders” (priority 2001, published 2003).

T3 sequence (P28223 whole entry): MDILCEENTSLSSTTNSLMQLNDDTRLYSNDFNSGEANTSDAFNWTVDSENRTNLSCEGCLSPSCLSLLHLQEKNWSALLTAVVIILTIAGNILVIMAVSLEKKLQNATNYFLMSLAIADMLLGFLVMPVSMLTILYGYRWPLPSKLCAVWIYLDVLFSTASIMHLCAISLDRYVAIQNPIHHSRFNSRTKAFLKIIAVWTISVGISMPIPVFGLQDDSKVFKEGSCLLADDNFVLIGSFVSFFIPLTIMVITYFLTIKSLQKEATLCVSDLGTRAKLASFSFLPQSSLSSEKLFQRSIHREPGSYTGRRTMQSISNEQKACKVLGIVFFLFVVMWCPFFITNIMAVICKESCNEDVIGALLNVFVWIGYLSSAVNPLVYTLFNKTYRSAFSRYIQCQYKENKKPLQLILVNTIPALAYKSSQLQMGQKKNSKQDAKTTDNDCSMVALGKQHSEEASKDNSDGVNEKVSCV
T2 sequence (P14416 whole entry): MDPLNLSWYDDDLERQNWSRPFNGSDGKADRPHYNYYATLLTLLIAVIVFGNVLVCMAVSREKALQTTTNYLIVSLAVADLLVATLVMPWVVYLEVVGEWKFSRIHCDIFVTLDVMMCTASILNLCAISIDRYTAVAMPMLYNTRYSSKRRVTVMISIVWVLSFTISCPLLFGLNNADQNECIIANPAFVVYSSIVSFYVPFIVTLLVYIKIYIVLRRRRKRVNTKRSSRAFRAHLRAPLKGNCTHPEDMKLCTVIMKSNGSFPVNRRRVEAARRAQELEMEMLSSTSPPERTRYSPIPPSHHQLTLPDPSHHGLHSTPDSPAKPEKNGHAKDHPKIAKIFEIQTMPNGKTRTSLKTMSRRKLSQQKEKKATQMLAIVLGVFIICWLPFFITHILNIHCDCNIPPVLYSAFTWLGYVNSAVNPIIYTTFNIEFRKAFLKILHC
Sequence of CYP2C19 (P33261 whole entry): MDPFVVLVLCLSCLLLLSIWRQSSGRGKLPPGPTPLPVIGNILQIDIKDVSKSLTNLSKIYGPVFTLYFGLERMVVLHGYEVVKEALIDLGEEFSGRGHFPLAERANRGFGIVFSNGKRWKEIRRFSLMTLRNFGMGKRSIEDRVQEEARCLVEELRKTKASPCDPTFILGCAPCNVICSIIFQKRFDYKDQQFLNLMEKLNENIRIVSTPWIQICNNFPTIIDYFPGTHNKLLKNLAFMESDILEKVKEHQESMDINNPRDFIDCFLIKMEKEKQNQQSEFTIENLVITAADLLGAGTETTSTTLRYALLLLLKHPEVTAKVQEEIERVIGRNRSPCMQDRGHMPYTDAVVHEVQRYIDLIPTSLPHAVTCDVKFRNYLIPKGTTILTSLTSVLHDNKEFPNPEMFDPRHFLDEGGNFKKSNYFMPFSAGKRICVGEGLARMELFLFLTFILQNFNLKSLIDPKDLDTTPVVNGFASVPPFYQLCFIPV
Sequence of CYP3A4 (P08684 whole entry): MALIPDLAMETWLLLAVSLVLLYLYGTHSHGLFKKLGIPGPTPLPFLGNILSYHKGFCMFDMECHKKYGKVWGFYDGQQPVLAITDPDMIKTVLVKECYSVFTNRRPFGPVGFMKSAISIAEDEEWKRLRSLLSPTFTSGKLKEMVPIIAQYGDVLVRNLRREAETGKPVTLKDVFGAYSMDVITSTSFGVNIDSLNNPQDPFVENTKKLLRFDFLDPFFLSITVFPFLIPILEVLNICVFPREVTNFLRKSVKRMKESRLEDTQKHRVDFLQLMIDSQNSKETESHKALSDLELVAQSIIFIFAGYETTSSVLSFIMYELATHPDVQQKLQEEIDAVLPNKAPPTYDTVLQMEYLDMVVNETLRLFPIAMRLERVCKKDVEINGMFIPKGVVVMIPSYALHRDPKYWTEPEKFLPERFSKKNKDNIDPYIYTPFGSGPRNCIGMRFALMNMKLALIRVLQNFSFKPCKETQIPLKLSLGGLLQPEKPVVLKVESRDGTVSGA

In the case of `CC(O)c1nn(CCCN2CCN(c3cccc(Cl)c3)CC2)c(=O)n1CCOc1ccccc1` (racemic) [(RS)—OH, hydroxynefazodone], the IC50 at α1 Receptor was determined as 381 nM; in the data set with serotonin uptake it was 500 nM; in the data set on norepinephrine uptake, 1000 nM.
Regarding `C[C@@H](O)c1nn(CCCN2CCN(c3cccc(Cl)c3)CC2)c(=O)n1CCOc1ccccc1` [(R)—OH, (R)-Hydroxynefazodone], the half-inhibitory concentration (IC50) on α1 Receptor was 367 nM; at CYP1A2, above 200000 nM; in the data set with serotonin uptake it was 640 nM; in the data set with norepinephrine uptake, 1200 nM; on CYP3A4, above 200000 nM.
Turning to `C[C@H](O)c1nn(CCCN2CCN(c3cccc(Cl)c3)CC2)c(=O)n1CCOc1ccccc1` [(S)—OH], the 50% inhibitory concentration (IC50) on α1 Receptor is 419 nM; on CYP1A2, above 200000 nM; in the data set with serotonin uptake, 790 nM; at CYP2C19, above 200000 nM. Moreover, the “Affinity for the D2 receptor (in words)” value at Human D2 Receptor is “excellent affinity”. In addition, the “Activity in inhibiting serotonin uptake (in words)” value in the data set with serotonin uptake (comment on Table 4) is recorded as “least active enantiomer”. For the same molecule, on Human 5-HT2A Receptor, the “Affinity for 5HT2A receptors (in words)” value is given as “highest affinity”.
Consider `CCc1nn(CCCN2CCN(c3cccc(Cl)c3)CC2)c(=O)n1CCOc1ccccc1` [Nefazodone, 2-[3-[4-(3-chlorophenyl)-1-piperazinyl]-propyl-]5-ethyl-2,4-dihydro-4-(2-phenoxy-ethyl)-3H-1,2,4-triazol-3-one, reference compound], for which the IC50 on α1 Receptor is 306 nM; on CYP1A2, above 200000 nM; in the data set with serotonin uptake, 200 nM; in the data set on norepinephrine uptake, 1200 nM. Besides, the Bioavailability result in data set [1] is “approximately 20%”.

A word on the IC50: it is the concentration that gives 50% inhibition.
